Assay results as given in US10618937B2, “Method of treating Alzheimer's disease” (INDUSTRY-ACADEMIC COOPERATION FOUNDATION GYEONGSANG …, priority 2016, dated 2020).

Columns and labels:
APP/PS1 model mice = assay: Morris water maze test in APP/PS1 model mice; type: in vivo; conditions: APP/PS1 model mice treated, compared to APP/PS1 model mice
Experimental: Male C57BL/6J wild type mice and double transgenic B6.Cg-Tg (APPswe, PSENdE9) 85Dbo Mmjax (APP/PS1) AD-model mice were obtained from Jackson Laboratories (Bar Harbor, Me., USA). The brains of the double transfected mice express Swedish mutation-containing chimeric mouse-human amyloid precursor protein (Mo/HuAPP695swe) and mutant human presenilin 1 protein (PS1-dE9). The mice were fed with an unlimited supply of food and water at an animal breeding ground of a university at a temperature of 23° C., at the relative humidity of 60±10% and in the black and light cycle of 12 h/12 h. […]
The Morris Underwater Maze Test System was constructed as a circular water tank with a diameter of 100 cm and a height of 40 cm containing 15.5 cm depth of water (temperature of 23±1° C.) which was opaque with white ink added. […] The delay time for escaping from the water maze (the time to find the hidden escape platform) was calculated for each trial. […] For the probe experiment, the platform was removed, each mouse was allowed to freely swim for 60 seconds, the amount of time the mouse spent in the target quadrant was measured, and the number of platform positions the mouse passed by (where the platform was located during the hidden platform training). […] All data were recorded by using video-tracking software (SMART, Panlab Harward Apparatus, Bioscience Company, Holliston, Mass., USA).

[1] = system: APP-transfected HT-22 cells; assay: Western blot analysis of proteins isolated from APP-transfected HT-22 cells; type: cell-based; conditions: 1, 5, 10 or 20 μM
Experimental: SH-SY5Y cells and HT-22 cells were inoculated into a culture flask containing the medium, and cultured until reaching the confluency of 70% to 75%. The pCAX vector with the APPswe/ind gene was transfected for 48 hours by using Lipofectamine 3000 (Life technologies) according to the manufacturers instructions.
Protein concentrations were measured by using a BIORAD protein assay kit (BIORAD LABORATORIES, CA, USA). Equal amounts of protein (15 to 25 μg) were electrophoresed under the same experimental conditions using 4 to 12% BLOT™ minigel and MES SDS electrophoresis buffer (running buffer) 1×(NOVEX, LIFE TECHNOLOGIES, Kiryat Shmona, Israel), and a broad range prestained protein marker (GANGNAM STAIN™, Intron Biotechnology) was used as the control for the molecular size. To reduce nonspecific binding, the membranes used were blocked with 5% (w/v) skim milk and reacted with a primary antibody (a 1:1000 dilution) overnight at 4° C. After an appropriate reaction with a horseradish peroxidase (HRP)-binding secondary antibody, proteins were detected by using an ECL detection reagent (AMERSHAM PHARMECIA BIOTECH, Uppsala, Sweden) according to the manufacturer's instructions. The X-ray film was scanned and the optical density of the band was analyzed using a densitometry using a computer-based Sigma Gel program, version 1.0 (SPSS, Chicago, Ill., USA).
For use as the primary antibody, anti-amyloid β (Aβ), anti-APP, anti-AdipoR1 (Adiponectin receptor 1), anti-phospho-AMPK, anti-SNAP-25 (Synaptosomal-Associated Protein 25), anti-SAP-102, anti-Syanpatophysin, phospho-Tau (Ser 413), anti-p-mTOR, anti-p-ULK1, and anti-β-actin were used.

With “RGPCG (adiponectin receptor-activating peptide) [5AA1]” the “time for staying where the platform was located (probe test)” value (APP/PS1 model mice) was “increased”, the “expression of AdipoR1 protein” value [1] was “expressed more” and the “expression of p-AMPK protein” value [1] was “expressed more”. The “expression level of amyloid β (Aβ)” value ([1]; normalized with β-actin) was “significantly reduced” and the “expression level of β-amyloid precursor protein (APP)” value ([1]; normalized with β-actin) was “significantly reduced”.
